{"source": "patent US20250019345A1", "about": "“NEW CANNABINOID-GAB[…] USES THEREOF” (LONDON PHARMACEUTICALS AND RESEARCH CORPORATION, priority 2021, published 2025)", "origin": "cited, not measured here", "settings": "after oral administration; for Tmax: cannabinoids", "data": [{"smiles": "CC(C)C[C@H](CN)CC(=O)O", "note": "[pregabalin]", "values": [{"measurement": "bioavailability", "result": "exceed 90%"}]}, {"smiles": "CCCCCc1cc(O)c2c(c1)OC(C)(C)[C@@H]1CCC(C)=C[C@@H]21", "note": "[THC, delta-9-tetrahydrocannabinol]", "values": [{"measurement": "Tmax", "result": "~4", "unit": "h"}]}, {"smiles": "C=C(C)[C@@H]1CCC(C)=C[C@H]1c1c(O)cc(CCCCC)cc1O", "note": "[CBD, cannabidiol]", "values": [{"measurement": "Tmax", "result": "~4", "unit": "h"}]}]}
